According to the supplement of paper PMC4862054:

Key:
Settings in all cases: incubation time: 72 h
[1] = test system: CAL-148; test: normalised viability (% of control), CellTiter-Blue; higher = more viable cells (about 100 = DMSO control)
Experimental: (§1)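 DSRT, CellTiter-Blue viability, 72 h incubation. Signal is normalised to DMSO and benzethonium chloride controls. Value is the normalised response at dose 6.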

[2] = test system: MDA-MB-453; test: as above
Experimental: as §1

[3] = test system: CAL-51; test: as above
Experimental: as §1

[4] = test system: HDQ-P1; test: as above
Experimental: as §1

[5] = test system: CAL-85-1; test: as above
Experimental: as §1

[6] = test system: DU-4475; test: as above
Experimental: as §1

[7] = test system: MDA-MB-231; test: normalised response (% of control), CellTiter-Glo; higher = more viable cells (100 = DMSO, 0 = benzethonium chloride kill control)
Experimental: (§2)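 DSRT, 72 h incubation, CellTox Green / CellTiter-Glo readout. Signal is normalised to DMSO and benzethonium chloride controls. Value is the normalised response at the highest dose.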

[8] = test system: SK-BR-3; test: as above
Experimental: as §2

[9] = test system: CAL-148; test: as above
Experimental: as §2

[10] = test system: HCC1143; test: as above
Experimental: as §2

[11] = test system: Hs578T; test: as above
Experimental: as §2

[12] = test system: MDA-MB-453; test: as above
Experimental: as §2

[13] = test system: CAL-51; test: as above
Experimental: as §2

[14] = test system: MDA-MB-436; test: as above
Experimental: as §2

[15] = test system: MFM-223; test: as above
Experimental: as §2

[16] = test system: HDQ-P1; test: as above
Experimental: as §2

[17] = test system: HCC1937; test: as above
Experimental: as §2

[18] = test system: BT-549; test: as above
Experimental: as §2

[19] = test system: CAL-85-1; test: as above
Experimental: as §2

[20] = test system: BT-474; test: as above
Experimental: as §2

[21] = test system: MCF-10A; test: as above
Experimental: as §2

[22] = test system: MDA-MB-468; test: as above
Experimental: as §2

[23] = test system: HCC1599; test: as above
Experimental: as §2

[24] = test system: DU-4475; test: as above
Experimental: as §2

[25] = test system: CAL-120; test: as above
Experimental: as §2

[26] = test system: MDA-MB-231; test: normalised response (% of control), CellTox Green; higher = less cell death (100 = DMSO, 0 = benzethonium chloride kill control)
Outline: (§3)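 Every value is a normalised signal taken at one concentration of a dilution series. Compound was placed in 384-well plates at 5 concentrations in 10-fold steps over a compound-specific 10,000-fold range, and 20 µl of breast cancer cell suspension was seeded onto it. After 72 h, CellTox Green fluorescence (485/520 nm) was measured first and CellTiter-Glo luminescence second, following 10 min at room temperature. Each plate was scaled to 0.1 % DMSO (100) and a positive kill control (0).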

[27] = test system: CAL-148; test: as above
Outline: as §3

[28] = test system: HCC1143; test: as above
Outline: as §3

[29] = test system: Hs578T; test: as above
Outline: as §3

[30] = test system: MDA-MB-453; test: as above
Outline: as §3

[31] = test system: CAL-51; test: as above
Outline: as §3

[32] = test system: MDA-MB-436; test: as above
Outline: as §3

[33] = test system: MFM-223; test: as above
Outline: as §3

[34] = test system: HDQ-P1; test: as above
Outline: as §3

[35] = test system: HCC1937; test: as above
Outline: as §3

[36] = test system: BT-549; test: as above
Outline: as §3

[37] = test system: CAL-85-1; test: as above
Outline: as §3

[38] = test system: BT-474; test: as above
Outline: as §3

[39] = test system: MCF-10A; test: as above
Outline: as §3

[40] = test system: MDA-MB-468; test: as above
Outline: as §3

[41] = test system: HCC1599; test: as above
Outline: as §3

[42] = test system: DU-4475; test: as above
Outline: as §3

[43] = test system: CAL-120; test: as above
Outline: as §3

Cc1cc(Nc2cc(CN3CCOCC3)c3nc(C)c(Cc4ccc(Cl)cc4F)n3n2)n[nH]1 (300 nM)
normalised viability [1]: 89.3%
normalised viability [2]: 63.9%
normalised viability [3]: 90.5%
normalised viability [4]: 45.8%
normalised viability [5]: 103%
normalised viability [6]: 104%

N#Cc1ccc(COC[C@H]2O[C@@H](n3c(NCc4ccc(Cl)c(Cl)c4)nc4c(N)ncnc43)[C@H](O)[C@@H]2O)cc1 (300 nM)
normalised viability [1]: 110%
normalised viability [2]: 112%
normalised viability [3]: 117%
normalised viability [4]: 67%
normalised viability [5]: 96.9%
normalised viability [6]: 91.7%

COc1cc(OC2CCN(C)CC2)ccc1Nc1ncc2c(n1)n(C1CCCC1)c(=O)n2C [AZ 3146] (300 nM)
normalised viability [1]: 115%
normalised viability [2]: 97.2%
normalised viability [3]: 87.6%
normalised viability [4]: 76.6%
normalised viability [5]: 109%
normalised viability [6]: 115%

CN(C)c1nc(N(C)C)nc(N(C)C)n1 [Altretamine] (300 nM)
normalised viability [1]: 112%
normalised viability [2]: 112%
normalised viability [3]: 108%
normalised viability [4]: 88.5%
normalised viability [5]: 95.9%
normalised viability [6]: 110%

COC(=O)c1ccc2c(c1)NC(=O)/C2=C(\Nc1ccc(N(C)C(=O)CN2CCN(C)CC2)cc1)c1ccccc1 [BIBF 1120] (300 nM)
normalised viability [1]: 96.1%
normalised viability [2]: 105%
normalised viability [3]: 93.9%
normalised viability [4]: 100%
normalised viability [5]: 111%
normalised viability [6]: 91.9%

Nc1cc(C(F)(F)F)c(-c2cc(N3CCOCC3)nc(N3CCOCC3)n2)cn1 [BKM-120] (300 nM)
normalised viability [1]: 92.5%
normalised viability [2]: 71.2%
normalised viability [3]: 78.4%
normalised viability [4]: 71.9%
normalised viability [5]: 81.2%
normalised viability [6]: 102%

O=C(/C=C/c1cccc(S(=O)(=O)Nc2ccccc2)c1)NO [Belinostat] (300 nM)
normalised viability [1]: 49.3%
normalised viability [2]: 16.9%
normalised viability [3]: 105%
normalised viability [4]: 26.6%
normalised viability [5]: 72.5%
normalised viability [6]: 59.2%

CNC(=O)c1ccc(N2C(=S)N(c3ccc(C#N)c(C(F)(F)F)c3)C(=O)C2(C)C)cc1F [Enzalutamide] (10000 nM)
normalised response [7]: 90.2%
normalised response [8]: 99%
normalised response [9]: 96.1%
normalised response [10]: 96.6%
normalised response [11]: 105%
normalised response [12]: 88.5%
normalised response [13]: 80.3%
normalised response [14]: 97.2%
normalised response [15]: 89.3%
normalised response [16]: 86.5%
normalised response [17]: 92.7%
normalised response [18]: 100%
normalised response [19]: 91.7%
normalised response [20]: 94.3%
normalised response [21]: 93.4%
normalised response [22]: 93.7%
normalised response [23]: 102%
normalised response [24]: 92.6%
normalised response [25]: 97.5%
normalised response [26]: 107%
normalised response [27]: 103%
normalised response [28]: 117%
normalised response [29]: 112%
normalised response [30]: 95.5%
normalised response [31]: 108%
normalised response [32]: 96.1%
normalised response [33]: 106%
normalised response [34]: 112%
normalised response [35]: 55.2%
normalised response [36]: 70.1%
normalised response [37]: 85%
normalised response [38]: 101%
normalised response [39]: 111%
normalised response [40]: 87.5%
normalised response [41]: 96.7%
normalised response [42]: 98.2%
normalised response [43]: 104%

CCOC(=O)CCNc1cc(N2CCc3ccccc3CC2)nc(-c2ccccn2)n1 [GSK-J4] (100000 nM)
normalised response [7]: 0.03%
normalised response [8]: -0.42%
normalised response [9]: 0.06%
normalised response [10]: -0.1%
normalised response [11]: 0.22%
normalised response [12]: -0.16%
normalised response [13]: 0.09%
normalised response [14]: 0.01%
normalised response [15]: -0.08%
normalised response [16]: 1.14%
normalised response [17]: 0.08%
normalised response [18]: 0.26%
normalised response [19]: 0.22%
normalised response [20]: 0.77%
normalised response [21]: 0.14%
normalised response [22]: 0.05%
normalised response [23]: -0.22%
normalised response [24]: 0.52%
normalised response [25]: 0.19%
normalised response [26]: -38.5%
normalised response [27]: 3.2%
normalised response [28]: 24.1%
normalised response [29]: -146%
normalised response [30]: 2.15%
normalised response [31]: -10.9%
normalised response [32]: -10.7%
normalised response [33]: -2.28%
normalised response [34]: -15.5%
normalised response [35]: -33.8%
normalised response [36]: -16.3%
normalised response [37]: -35.9%
normalised response [38]: -13.6%
normalised response [39]: -83.7%
normalised response [40]: -155%
normalised response [41]: 70.9%
normalised response [42]: 79.7%
normalised response [43]: -21.8%

Cc1cc(Nc2cc(CN3CCOCC3)c3nc(C)c(Cc4ccc(Cl)cc4F)n3n2)n[nH]1 [Gandotinib] (10000 nM)
normalised response [7]: 27.9%
normalised response [8]: 50.8%
normalised response [9]: 96.7%
normalised response [10]: 51.7%
normalised response [11]: 7.38%
normalised response [12]: 120%
normalised response [13]: 26%
normalised response [14]: 49%
normalised response [15]: 59.8%
normalised response [16]: 39.4%
normalised response [17]: 64.2%
normalised response [18]: 14.2%
normalised response [19]: 58.8%
normalised response [20]: 44.5%
normalised response [21]: 41.2%
normalised response [22]: 28.5%
normalised response [23]: 75.9%
normalised response [24]: 72.3%
normalised response [25]: 27.9%
normalised response [26]: 67.7%
normalised response [27]: 69.7%
normalised response [28]: 100%
normalised response [29]: -107%
normalised response [30]: 88.8%
normalised response [31]: 24%
normalised response [32]: 82%
normalised response [33]: 76%
normalised response [34]: 102%
normalised response [35]: 101%
normalised response [36]: 83.8%
normalised response [37]: 51.3%
normalised response [38]: 80.9%
normalised response [39]: 58.1%
normalised response [40]: 11.5%
normalised response [41]: 92%
normalised response [42]: 103%
normalised response [43]: 59.9%

COC(=O)c1ccc2c(c1)NC(=O)/C2=C(\Nc1ccc(N(C)C(=O)CN2CCN(C)CC2)cc1)c1ccccc1 [Nintedanib] (10000 nM)
normalised response [7]: 1.73%
normalised response [8]: 71%
normalised response [9]: 90.8%
normalised response [10]: 48%
normalised response [11]: 82.3%
normalised response [12]: 73.4%
normalised response [13]: 2.78%
normalised response [14]: 17.1%
normalised response [15]: 50.6%
normalised response [16]: 40.1%
normalised response [17]: 27.6%
normalised response [18]: 0.72%
normalised response [19]: 87.7%
normalised response [20]: 3.88%
normalised response [21]: 40.1%
normalised response [22]: 4.97%
normalised response [23]: 84%
normalised response [24]: 84.8%
normalised response [25]: 52.1%
normalised response [26]: -69.5%
normalised response [27]: 79.6%
normalised response [28]: 87.2%
normalised response [29]: 104%
normalised response [30]: 99.7%
normalised response [31]: -13%
normalised response [32]: 42.1%
normalised response [33]: 92.7%
normalised response [34]: 61.2%
normalised response [35]: 14.2%
normalised response [36]: 27.7%
normalised response [37]: 85.3%
normalised response [38]: -15.7%
normalised response [39]: 31.4%
normalised response [40]: 15.6%
normalised response [41]: 99.9%
normalised response [42]: 96.7%
normalised response [43]: 77.8%

COc1cc2c(NC3CCN(C(C)C)CC3)nc(N3CCC(F)(F)CC3)nc2cc1OCCCN1CCCC1 [UNC0642] (10000 nM)
normalised response [7]: 18.8%
normalised response [8]: 29.6%
normalised response [9]: 32.4%
normalised response [10]: 70.4%
normalised response [11]: 91.6%
normalised response [12]: 5.97%
normalised response [13]: 79%
normalised response [14]: 19.1%
normalised response [15]: 32.9%
normalised response [16]: 48.9%
normalised response [17]: 56.7%
normalised response [18]: 56.3%
normalised response [19]: 5.34%
normalised response [20]: 33.3%
normalised response [21]: 40.9%
normalised response [22]: 3.41%
normalised response [23]: 94.2%
normalised response [24]: 76.3%
normalised response [25]: 60.9%
normalised response [26]: -38.7%
normalised response [27]: 44.5%
normalised response [28]: 76.4%
normalised response [29]: 122%
normalised response [30]: 43.1%
normalised response [31]: 113%
normalised response [32]: 44%
normalised response [33]: 81.9%
normalised response [34]: 93.1%
normalised response [35]: 29.2%
normalised response [36]: 104%
normalised response [37]: -18.1%
normalised response [38]: -7.97%
normalised response [39]: 57%
normalised response [40]: -31.3%
normalised response [41]: 87.4%
normalised response [42]: 95.5%
normalised response [43]: 19.6%
